Results reported in paper PMC8504809 (Clinical and Translational Science, 2021).

Legend:
[1] = Plasma pharmacokinetics after single IV cassette infusion; type: in vivo, cynomolgus monkey
[2] = tested on: suspension monkey hepatocytes; assay: In vitro hepatic uptake clearance in suspension monkey hepatocytes; type: in vitro ADME, cynomolgus monkey; conditions: 37°C
[3] = Monkey PBPK model fitting of plasma and liver concentrations; set-up: species or system cynomolgus monkey; conditions: for reduction of active uptake clearance with rifampin inhibition (modeled): PBPK model, RIF vs vehicle; for Kp: plasma and liver
[4] = cited from earlier work
Liver exposure = type: in vivo, cynomolgus monkey; conditions: for liver concentration, RIF vs vehicle, at 1 h: 1 h post IV infusion; for increase of liver concentration with RIF at 6 h: average, RIF vs vehicle, N = 2 per time point
[5] = Urinary excretion in monkeys; type: in vivo; conditions: in-house bile duct cannulation (BDC) monkey study (data not shown)
[6] = clinical trial; cited from earlier work
[7] = Pharmacokinetics of rifampin after oral administration; type: in vivo; conditions: male, cynomolgus monkey, plasma, 20 mg/kg
[8] = monkeys; cited from earlier work
[9] = humans; cited from earlier work
OATP1B3 = conditions: read-out: Ki against OATP1B3; cited from earlier work
OAT2 = conditions: read-out: IC50 for OAT2; cited from earlier work
OATP1B1 = conditions: read-out: Ki against OATP1B1; cited from earlier work
[10] = RIF 20 mg/kg orally vs vehicle, monkeys
[11] = PBPK fitted, rifampin, estimate (%CV)
[12] = PBPK fitted, vehicle, estimate (%CV)
[13] = cynomolgus monkey, intravenous, 0.5 mg/kg, Kp,rest, PBPK fitted, vehicle, estimate (%CV)
[14] = cynomolgus monkey, intravenous, 0.5 mg/kg, Kp,scalar, PBPK fitted, vehicle, estimate (%CV)
[15] = rifampin, fixed to the value estimated without rifampin

Compound: Nc1c(CC(=O)O)cccc1C(=O)c1ccc(Br)cc1 [Bromfenac]
- decrease of systemic CL in the presence of RIF [1, 10]: 2.1 fold
- increase of plasma exposure (AUClast) with RIF compared to the vehicle group [1, 10]: 2.1 fold
- hepatocyte uptake in the presence of 200 µM of rifamycin SV [2]: partially inhibit
- CL,u,int,passive [3, 11]: 11.2 (95.3%) ml/min/kg
- CLu,int,active [3, 11]: 820 (10.8%) ml/min/kg
- CLu,int,meta [3, 11]: 84.8 (3.8%) ml/min/kg
- CL,u,int,passive [3, 12]: 13.1 (96.2%) ml/min/kg
- CLu,int,active [3, 12]: 2300 (18.7%) ml/min/kg
- CLu,int,meta [3, 12]: 49.7 (16.9%) ml/min/kg
- reduction of active uptake clearance with rifampin inhibition (modeled) [3]: 64%
- Kp [3, 13]: 0.8
- Kp [3, 14]: 0.5
- bromfenac glucuronide excreted in urine, % of the administered dose ([4]; healthy subjects): 82.5%
- liver concentrations, vehicle vs RIF pretreated groups, at 1, 2.5, and 6 h (Liver exposure): overlapped

Compound: CC1=C(CCC(=O)O)c2cc3nc(cc4[nH]c(cc5[nH]c(cc1n2)c(C)c5CCC(=O)O)c(CCC(=O)O)c4C)C(CCC(=O)O)=C3C [CP‐III]
- increase of plasma exposure (AUClast) with RIF compared to the vehicle group [1, 10]: 8.8 fold
- liver concentration, RIF vs vehicle, at 1 h (Liver exposure): minimally changed
- increase of liver concentration with RIF at 6 h (Liver exposure): 3.7 fold

Compound: CN(C)c1ccc2c(c1)c(=O)n(-c1ccc(C[C@H](NC(=O)c3c(Cl)cccc3Cl)C(=O)O)cc1)c(=O)n2C [Carotegrast]
- decrease of systemic CL in the presence of RIF [1, 10]: about 10 fold
- increase of Cmax with RIF [1, 10]: 4.8 fold
- increase of plasma exposure (AUClast) with RIF compared to the vehicle group [1, 10]: 9.1 fold
- volume of distribution (V) ([1]; in the presence of RIF): 0.05 L/kg
- volume of distribution (V) ([1]; vehicle group (without RIF)): 0.11 L/kg
- hepatocyte uptake in the presence of 200 µM of rifamycin SV [2]: greatly inhibited
- Urinary excretion, % of total dose [5]: 7.5%
- CL,u,int,passive [3, 11]: 2.9 (32.4%) ml/min/kg
- CLu,int,active [3, 11]: 95.2 (4.4%) ml/min/kg
- CLu,int,bile [3, 11]: 11.7 (0.1%) ml/min/kg
- CL,u,int,passive [3, 12]: 4.1(11.8%) ml/min/kg
- CLu,int,active [3, 12]: 1154.1 (5.2%) ml/min/kg
- CLu,int,bile [3, 12]: 16.3 (0.022%) ml/min/kg
- Kp,rest [3, 12]: 0.85 (6.1%)
- Kp,scalar [3, 12]: 0.16 (29.4%)
- Kp,rest [3, 15]: 0.85 (fixed)
- Kp,scalar [3, 15]: 0.16 (fixed)
- liver concentration, RIF vs vehicle, at 1 h (Liver exposure): comparable
- liver concentrations, RIF-treated vs vehicle group, at 2.5 h and 6 h (Liver exposure; 2.5 h and 6 h): higher
- average Kp,liver (liver to plasma ratio) (Liver exposure; without RIF (reduced by RIF treatment), Figure S3): ~17

Compound: COc1ccccc1[C@H](Cn1c(=O)n(C(C)(C)C(=O)O)c(=O)c2c(C)c(-c3ncco3)sc21)OC1CCOCC1 [GS‐0976]
- pharmacodynamic (PD) effect with potent OATP inhibitor [6]: not altered
- plasma concentration with potent OATP inhibitor [6]: increased significantly

Compound: CO[C@H]1/C=C/O[C@@]2(C)Oc3c(C)c(O)c4c(O)c(c(/C=N/N5CCN(C)CC5)c(O)c4c3C2=O)NC(=O)/C(C)=C\C=C\[C@H](C)[C@H](O)[C@@H](C)[C@@H](O)[C@@H](C)[C@H](OC(C)=O)[C@@H]1C [RIF, rifampin]
- concentration at 3.25 h ([7]; oral): 20.8 µM
- concentration at 6 h ([7]; oral): > 10 µM
- Tmax ([7]; po): 3.5 to 4.5 h

Compound: CC(C)c1nc(N(C)S(C)(=O)=O)nc(-c2ccc(F)cc2)c1/C=C/[C@@H](O)C[C@@H](O)CC(=O)O [Rosuvastatin]
- decrease of systemic CL in the presence of RIF [1, 10]: 2.2 fold
- increase of plasma exposure (AUClast) with RIF compared to the vehicle group [1, 10]: 2.3 fold
- hepatocyte uptake in the presence of 200 µM of rifamycin SV [2]: greatly inhibited
- CL,u,int,passive [3, 11]: 0.5 (41%) ml/min/kg
- CLu,int,active [3, 11]: 81.7 (8.5%) ml/min/kg
- CLu,int,bile [3, 11]: 2.6 (19.7%) ml/min/kg
- CL,u,int,passive [3, 12]: 1.0 (22.5%) ml/min/kg
- CLu,int,active [3, 12]: 331.8 (13.8%) ml/min/kg
- CLu,int,bile [3, 12]: 2.8 (1.7%) ml/min/kg
- reduction of active uptake clearance with rifampin inhibition (modeled) [3]: 75%
- Kp [3, 13]: 2.7
- Kp [3, 14]: 1.1
- CL renal ([3]; cynomolgus monkey, plasma, intravenous, 0.5 mg/kg): 4.4 mL/min/kg
- fraction cleared through renal excretion ([4]; humans): less than 10%
- liver concentrations, vehicle vs RIF pretreated groups, at 1, 2.5, and 6 h (Liver exposure): overlapped
- Urinary excretion, % of the absorbed dose [8]: ~ 20%

Compound: O=C(O)C[C@H](O)C[C@H](O)/C=C/c1c(C2CC2)nc2ccccc2c1-c1ccc(F)cc1 [pitavastatin]
- increase of systemic exposure when co-administered orally with rifampin [9]: 5.7 fold

Compound: CO[C@H]1/C=C/O[C@@]2(C)Oc3c(C)c(O)c4c(O)c(cc(O)c4c3C2=O)NC(=O)/C(C)=C\C=C\[C@H](C)[C@H](O)[C@@H](C)[C@@H](O)[C@@H](C)[C@H](OC(C)=O)[C@@H]1C [rifamycin SV]
- Ki (OATP1B3): 3000 nM
- IC50 (OAT2): ~200000 nM
- Ki (OATP1B1): 2000 nM

Compound: coproporphyrin I [CP‐I]
- increase of plasma exposure (AUClast) with RIF compared to the vehicle group [1, 10]: 5.4 fold
- liver concentration, RIF vs vehicle, at 1 h (Liver exposure): minimally changed
- increase of liver concentration with RIF at 6 h (Liver exposure): 3.2 fold
